According to PubChem BioAssay AID256 (DTP/NCI, 2004):
Where “and” joins values, the source holds several entries; their conditions need not be identical. Equal entries are not always repeated. Toxic doses and inconclusive results are not listed.

System: CD2F1 mice, L1210 leukemia ip, survival T/C
Test: NCI In Vivo Anticancer Drug Screen. Data for tumor model L1210 Leukemia (intraperitoneal) in CD2F1 (CDF1) mice
Settings: endpoint: mean survival time, higher = longer survival
Outline: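 Read-out first: treated-group measurement over vehicle-control measurement, expressed as a ratio. Animals bore a transplanted tumor line and were dosed with compound or vehicle.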

[1] = dose: 100.0 mg/kg/injection, schedule: Q01DX009 (ip), vehicle: saline with Tween-80
[2] = dose: 200.0 mg/kg/injection, schedule: Q01DX009 (ip), vehicle: saline with Tween-80
[3] = dose: 400.0 mg/kg/injection, schedule: Q01DX009 (ip), vehicle: saline with Tween-80
[4] = dose: 12.5 mg/kg/injection, schedule: Q01DX005 (ip), vehicle: water
[5] = dose: 100.0 mg/kg/injection, schedule: Q01DX001 (ip), vehicle: saline with Tween-80
[6] = dose: 200.0 mg/kg/injection, schedule: Q01DX001 (ip), vehicle: saline with Tween-80
[7] = dose: 400.0 mg/kg/injection, schedule: Q01DX001 (ip), vehicle: saline with Tween-80
[8] = dose: 25.0 mg/kg/injection, schedule: Q01DX009 (ip), vehicle: saline with Tween-80
[9] = dose: 50.0 mg/kg/injection, schedule: Q01DX009 (ip), vehicle: saline with Tween-80
[10] = dose: 100.0 mg/kg/injection, schedule: Q04DX003 (ip), vehicle: saline with Tween-80
[11] = dose: 200.0 mg/kg/injection, schedule: Q04DX003 (ip), vehicle: saline with Tween-80
[12] = dose: 400.0 mg/kg/injection, schedule: Q04DX003 (ip), vehicle: saline with Tween-80

Q: Which results are given for `O=P(O)(O)c1ccc(Oc2ccccc2)cc1`?
A: T/C (dose: 50.0 mg/kg/injection, schedule: Q04DX003 (ip), vehicle: saline): 102 % of control; T/C (dose: 100.0 mg/kg/injection, schedule: Q04DX003 (ip), vehicle: saline): 93 % of control; T/C (dose: 200.0 mg/kg/injection, schedule: Q04DX003 (ip), vehicle: saline): 103 % of control

Q: How did the T/C [1] turn out when `O=C1c2ccccc2C(=O)N1CNCCCNCN1C(=O)c2ccccc2C1=O` was run?
A: 98 % of control

Q: What about the T/C [2] of the same compound?
A: 98 % of control

Q: And the T/C [3]?
A: 96 % of control

Q: `Cn1ncc2c(N)nc(-c3ccccn3)nc21` was tested. Which T/C [4] did it give?
A: 97 % of control

Q: And the T/C (dose: 25.0 mg/kg/injection, schedule: Q01DX005 (ip), vehicle: water)?
A: 94 % of control

Q: And the T/C (dose: 50.0 mg/kg/injection, schedule: Q01DX005 (ip), vehicle: water)?
A: 91 % of control

Q: And the T/C (dose: 100.0 mg/kg/injection, schedule: Q01DX005 (ip), vehicle: water)?
A: 94 % of control

Q: Which T/C (dose: 5.0 mg/kg/injection, schedule: Q01DX009 (ip), vehicle: saline with Tween-80) does the source give for `O=C1C=C(C2OC(CO)C(O)C2O)C(=O)N1` (configuration not stated) here?
A: 106 % of control

Q: And the T/C (dose: 10.0 mg/kg/injection, schedule: Q01DX009 (ip), vehicle: saline with Tween-80)?
A: 111 % of control

Q: And the T/C (dose: 20.0 mg/kg/injection, schedule: Q01DX009 (ip), vehicle: saline with Tween-80)?
A: 111 % of control

Q: How did the T/C [5] turn out when `Cc1nc(N)[nH]c(=O)c1CCCNCc1ccncc1` was run?
A: 87 % of control

Q: What about the T/C [6] of the same compound?
A: 91 % of control

Q: And the T/C [7]?
A: 90 % of control

Q: How did the T/C (dose: 0.78 mg/kg/injection, schedule: Q01DX009 (ip), vehicle: saline with Tween-80) turn out when `C=C1N(C)c2ccccc2C1(C)C` was run?
A: 104 % of control

Q: And the T/C (dose: 1.56 mg/kg/injection, schedule: Q01DX009 (ip), vehicle: saline with Tween-80)?
A: 101 % of control

Q: What about the T/C (dose: 3.12 mg/kg/injection, schedule: Q01DX009 (ip), vehicle: saline with Tween-80) of the same compound?
A: 97 % of control

Q: What about the T/C (dose: 6.25 mg/kg/injection, schedule: Q01DX009 (ip), vehicle: saline with Tween-80) of the same compound?
A: 98 % of control

Q: And the T/C (dose: 12.5 mg/kg/injection, schedule: Q01DX009 (ip), vehicle: saline with Tween-80)?
A: 92 % of control and 100 % of control

Q: And the T/C [8]?
A: 94 % of control

Q: And the T/C [9]?
A: 94 % of control

Q: What does the source list for `CCCCCCCCCCCCCCCCCCCCCC(=O)Nc1ccn(C2OC(CO)C(O)C2O)c(=O)n1` (configuration not stated)?
A: T/C (dose: 100.0 mg/kg/injection, schedule: Q04DX002 (ip), vehicle: saline with Tween-80): 212 % of control; T/C (dose: 200.0 mg/kg/injection, schedule: Q04DX002 (ip), vehicle: saline with Tween-80): 253 % of control; T/C (dose: 400.0 mg/kg/injection, schedule: Q04DX002 (ip), vehicle: saline with Tween-80): 325 % of control

Q: For `CCCn1c2ccccc2c2ccccc21`, which T/C (dose: 100.0 mg/kg/injection, schedule: Q04DX003 (ip), vehicle: Klucel (hydroxypropylcellulose) (HPC)) is on record?
A: 91 % of control

Q: What about the T/C (dose: 200.0 mg/kg/injection, schedule: Q04DX003 (ip), vehicle: Klucel (hydroxypropylcellulose) (HPC)) of the same compound?
A: 105 % of control

Q: What about the T/C (dose: 400.0 mg/kg/injection, schedule: Q04DX003 (ip), vehicle: Klucel (hydroxypropylcellulose) (HPC)) of the same compound?
A: 96 % of control

Q: Which T/C [8] does the source give for `CC(=O)c1ccccc1C(C)C` here?
A: 91 % of control

Q: What about the T/C [9] of the same compound?
A: 96 % of control

Q: And the T/C [1]?
A: 94 % of control

Q: With `CN(CCS(=O)(=O)O)/N=C/c1ccc2c(c1)OCO2` as the compound, how does the T/C (dose: 25.0 mg/kg/injection, schedule: Q04DX003 (ip), vehicle: acetone) read?
A: 97 % of control

Q: And the T/C (dose: 50.0 mg/kg/injection, schedule: Q04DX003 (ip), vehicle: acetone)?
A: 103 % of control

Q: And the T/C (dose: 100.0 mg/kg/injection, schedule: Q04DX003 (ip), vehicle: acetone)?
A: 98 % of control

Q: What does the source list for `CC(=O)OCC1OC(n2nc(CBr)cc2C(N)=O)C(OC(C)=O)C(OC(C)=O)C1OC(C)=O` (configuration not stated)?
A: T/C (dose: 12.5 mg/kg/injection, schedule: Q01DX005 (ip), vehicle: distilled water + Tween-80): 104 % of control; T/C (dose: 25.0 mg/kg/injection, schedule: Q01DX005 (ip), vehicle: distilled water + Tween-80): 96 % of control; T/C (dose: 50.0 mg/kg/injection, schedule: Q01DX005 (ip), vehicle: distilled water + Tween-80): 98 % of control; T/C (dose: 100.0 mg/kg/injection, schedule: Q01DX005 (ip), vehicle: distilled water + Tween-80): 92 % of control; T/C (dose: 200.0 mg/kg/injection, schedule: Q01DX005 (ip), vehicle: distilled water + Tween-80): 93 % of control

Q: What does the source list for `CCN(C(=O)CCl)c1ccccc1C`?
A: T/C [10]: 92 % of control; T/C [11]: 89 % of control

Q: Which T/C [10] does the source give for `CC(CO)CCC(C)CO` (configuration not stated) here?
A: 100 % of control

Q: What about the T/C [11] of the same compound?
A: 95 % of control

Q: What about the T/C [12] of the same compound?
A: 100 % of control

Q: What does the source list for `CCCCCCCCCCCC[S+](C)C`?
A: T/C (dose: 10.0 mg/kg/injection, schedule: Q04DX003 (ip), vehicle: Klucel (hydroxypropylcellulose) (HPC)): 107 % of control; T/C (dose: 20.0 mg/kg/injection, schedule: Q04DX003 (ip), vehicle: Klucel (hydroxypropylcellulose) (HPC)): 103 % of control; T/C (dose: 40.0 mg/kg/injection, schedule: Q04DX003 (ip), vehicle: Klucel (hydroxypropylcellulose) (HPC)): 98 % of control

Q: `CCOC(=O)CCc1ccc2c(c1)OCO2` was tested. Which T/C [1] did it give?
A: 103 % of control

Q: And the T/C [2]?
A: 103 % of control

Q: What about the T/C [3] of the same compound?
A: 113 % of control

Q: Which T/C (dose: 100.0 mg/kg/injection, schedule: Q04DX002 (ip), vehicle: saline) does the source give for `CCOC(=O)NCCB(O)O` here?
A: 100 % of control

Q: And the T/C (dose: 200.0 mg/kg/injection, schedule: Q04DX002 (ip), vehicle: saline)?
A: 88 % of control

Q: And the T/C (dose: 400.0 mg/kg/injection, schedule: Q04DX002 (ip), vehicle: saline)?
A: 95 % of control

Q: For `Cn1cnc(C(=N)[Se])c1N`, which T/C (dose: 0.78 mg/kg/injection, schedule: Q01DX005 (ip), vehicle: water) is on record?
A: 90 % of control

Q: And the T/C (dose: 1.56 mg/kg/injection, schedule: Q01DX005 (ip), vehicle: water)?
A: 102 % of control

Q: And the T/C (dose: 3.13 mg/kg/injection, schedule: Q01DX005 (ip), vehicle: water)?
A: 100 % of control

Q: And the T/C (dose: 6.25 mg/kg/injection, schedule: Q01DX005 (ip), vehicle: water)?
A: 90 % of control

Q: And the T/C [4]?
A: 100 % of control

Q: What does the source list for `CC/C=C\C/C=C\C/C=C\CCCCCCCC(=O)O`?
A: T/C [10]: 92 % of control; T/C [11]: 100 % of control; T/C [12]: 92 % of control

Q: `CCc1c(Br)c(CC)c(CC)c(Br)c1CC` was tested. Which T/C [5] did it give?
A: 105 % of control

Q: What about the T/C [1] of the same compound?
A: 104 % of control

Q: What about the T/C [6] of the same compound?
A: 95 % of control

Q: And the T/C [2]?
A: 101 % of control

Q: And the T/C [7]?
A: 103 % of control

Q: And the T/C [3]?
A: 96 % of control

Q: `CC1CC(=O)C(CCC#N)=C(O)C1` (configuration not stated) was tested. Which T/C [10] did it give?
A: 94 % of control

Q: What about the T/C [11] of the same compound?
A: 91 % of control

Q: What about the T/C [12] of the same compound?
A: 91 % of control

Q: With `O=C(COc1ccc(Cl)cc1Cl)Nc1ccccc1F` as the compound, how does the T/C [10] read?
A: 100 % of control

Q: And the T/C [11]?
A: 94 % of control

Q: And the T/C [12]?
A: 94 % of control

Q: Which T/C [9] does the source give for `C/C=C/CC1CCCCC1` here?
A: 100 % of control

Q: What about the T/C [1] of the same compound?
A: 100 % of control

Q: What about the T/C [2] of the same compound?
A: 100 % of control

Q: `O=[N+]([O-])c1cccc(-c2nn[nH]n2)c1` was tested. Which T/C [5] did it give?
A: 93 % of control

Q: What about the T/C [1] of the same compound?
A: 98 % of control

Q: What about the T/C [10] of the same compound?
A: 97 % of control

Q: And the T/C [6]?
A: 104 % of control

Q: And the T/C [2]?
A: 117 % of control

Q: What about the T/C [11] of the same compound?
A: 97 % of control

Q: What about the T/C [7] of the same compound?
A: 88 % of control

Q: What about the T/C [3] of the same compound?
A: 101 % of control

Q: What about the T/C [12] of the same compound?
A: 103 % of control

Q: What does the source list for `Cc1ccc(C2(C(=O)O)CCCC2)cc1`?
A: T/C [1]: 96 % of control; T/C [10]: 97 % of control; T/C [2]: 97 % of control; T/C [11]: 98 % of control; T/C [3]: 90 % of control; T/C [12]: 95 % of control
